Data reported in patent US6107070A, “Human manganese superoxide dismutase proteins” (University of Florida, priority 1998, dated 2000).
Where a chain is given by its changes, count along the chain named. Where “and” joins values, the source holds several entries; their conditions need not be identical. Equal entries are not always repeated.

What was measured:
Format in all cases: biochemical
[1] = target: T1, human manganese superoxide dismutase (hMn SOD) variant Y34F (Tyr 34 replaced by Phe) (Homo sapiens, UniProt P04179, Y58F); test: Decay of superoxide catalyzed by Y34F hMnSOD, pulse radiolysis
T1 construct: as a mature protein tagged with an extra Met at the amino terminus; made in house; host or cells: E. coli QC774 (SodA/SodB mutant), pTrc99A
T1 sequence (P04179 25-222 Y58F): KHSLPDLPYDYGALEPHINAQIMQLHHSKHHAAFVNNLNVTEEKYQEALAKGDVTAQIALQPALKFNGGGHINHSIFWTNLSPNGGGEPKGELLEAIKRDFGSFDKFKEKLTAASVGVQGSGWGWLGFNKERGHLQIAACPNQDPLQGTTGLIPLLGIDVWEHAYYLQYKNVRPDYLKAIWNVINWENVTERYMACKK
Description: Experiments were carried out at the Center for Fast Kinetics Research at the University of Texas at Austin using a 4-Mev van der Graaff accelerator. A single high-dose electron pulse was used to generate superoxide radical anions from oxygen in acqueous solutions containing 10 mM sodium formate as hydroxyl radical scavenger (Schwartz, 1981) and 50 μM EDTA in addition to buffer and enzyme. All pulse radiolysis experiments were carried out at 20 ° C. The dismutation of O2^- was followed spectrophotometrically from its absorbance at 250 nm (ε=2000M^1 cm^1, Rabani and Nielson, 1969) with a path length of 2.5 cm. Progress curves for each set of 6 to 9 experiments were averaged. Exposure to ultraviolet radiation was minimized by opening a mechanical shutter a fraction of a second before each pulse.
The kinetic mechanism of FIG. 8 used to describe the wild-type MnSOD can also describe catalysis by Y34F Mn SOD (FIG. 7), as shown by pulse radiolysis. […] In this stimulation, the breakdown of the enzyme-substrate complex for enzyme in the reduced state, represented by k3 in the scheme of FIG. 8, is much slower for Y34F compared with wild-type, whereas the values of k3 are the same for both enzymes. […] The rate constants in Y34F for actual formation of the dead-end complex itself, k5 and k5 are quite similar to those for wild-type.

[2] = target: T2, human manganese superoxide dismutase (hMn SOD) variant Q143N (Gln 143 replaced by Asn), SEQ ID NO:3 (Homo sapiens, UniProt P04179, Q167N); test: Decay of superoxide catalyzed by Q143N hMnSOD, stopped-flow spectrophotometry at 5° C.
T2 construct: as a mature protein tagged with an extra Met at the amino terminus; made in house; host or cells: E. coli QC774 (SodA/SodB mutant), pTrc99A
T2 sequence (P04179 25-222 Q167N): T1 sequence (P04179 25-222 Y58F) with F34Y, Q143N
Description: (§1) Experiments were based on the stabilization of KO2 in aprotic solvent and the subsequent large dilution of this solution by an aqueous solution of enzyme in a stopped-flow apparatus, as described by McClune and Fee (1978). KO2 was dissolved in a mixture of dimethyl sulfoxide and […] (2:1 by volume; Aldrich, spectrophotometric grade) with solubility of KO2 enhanced with 18-crown-6 (Valentine and Curtis, 1975). The stopped-flow spectrophotometer (Kinetic Instruments, Ann Arbor, Mich.) was capable of efficient mixing of this solution with an acqueous solution of enzyme in buffer with a dead time between 1.5 and 2.0 ms. One drive syringe (capacity 50 μl) contained the aprotic solution of O2. This was diluted fifty-fold by the contents of a second syringe (capacity 2.5 ml) which contained enzyme, EDTA, and buffer. The decay of superoxide in initial velocity experiments and progress curves was monitored by its absorption at 250 to 300 nm. Stopped-flow experiments were carried out at […]. Four or more kinetic traces were averaged to reduce noise. Steady-state parameters were obtained by least-squares analysis of such data (Leatherbarrow (1987) "Enzfitter: a nonlinear regression data analysis program for the IBM PC" Elsevier BIOSOFT, Cambridge).

[3] = target: T3, human manganese superoxide dismutase (hMn SOD) variant Y34F (Tyr34Phe) (Homo sapiens, UniProt P04179, Y58F); test: Disproportionation of superoxide by Y34F hMnSOD, Example 3 (Tables 4 and 5), 20° C.
T3 construct: as a mature protein tagged with an extra Met at the amino terminus; made in house; host or cells: E. coli QC774 (SodA/SodB mutant), pTrc99A
T3 sequence (P04179 25-222 Y58F): T1 sequence (P04179 25-222 Y58F)
Description: as §1
(§2) In the present study, several novel hMnSOD proteins containing substitutions of His 30 (referring to the amino acid sequence of SEQ ID NO:2) were prepared by PCR site directed mutagenesis and purified by column chromatography, as described in the Materials and Methods section above, and as also described by Hsu et al. (1996) J. Biol. Chem. 271: 1768; and Hsieh et al. (1998) Biochemistry 37: 4731. In particular, His 30 was substituted with each of Ala, Asn, Ser and Gln. The resulting novel hMnSOD proteins containing a His 30 substitution were then assayed for enzymatic activity and product inhibition at 20° C. by measuring the absorbance of superoxide at 250 nm using stopped-flow spectrophotometry, as described above in the Materials and Methods section. […]

[4] = target: T4, human manganese superoxide dismutase (hMn SOD) variant H30S (His 30 replaced by Ser) (Homo sapiens, UniProt P04179, H54S); test: Disproportionation of superoxide by H30S hMnSOD, stopped-flow, 20° C.; details: pH 9.6, 20° C.
T4 construct: as a mature protein tagged with an extra Met at the amino terminus; made in house
T4 sequence (P04179 25-222 H54S): T1 sequence (P04179 25-222 Y58F) with H30S, F34Y
Description: as §1, §2

[5] = Table 1, pulse radiolysis, 20° C., pH 9.6 (Guan et al., 1997)
[6] = Table 3, KINSIM fit to pulse radiolysis data, 20° C., pH 9.6
[7] = FIG. 2, Michaelis-Menten fit, H2O, 50 mM glycine buffer, 1 mM EDTA, pH 9.4, 5° C.
[8] = Table 1, stopped-flow spectrophotometry, 5° C., pH 9.4
[9] = Table 2, KINSIM fit of FIG. 8 scheme to stopped-flow data, 5° C., pH 9.4
[10] = Table 4, 20° C., pH 9.4 per footnote

[O]O [superoxide]
kcat [1, 5]: 3.3 ms^-1 | kcat /km [1, 5]: 8.7e+08 M⁻¹ s⁻¹ | k1 [1, 6]: 1000 s⁻¹ | k2 [1, 6]: 5000 s⁻¹ | k4 [1, 6]: 1000 M⁻¹ s⁻¹ | k5 [1, 6]: 200 s⁻¹ | k-1 [1, 6]: 2e+09 M⁻¹ s⁻¹ | k-3 [1, 6]: 2e+09 M⁻¹ s⁻¹ | k-4 [1, 6]: 10000 s⁻¹ | k-5 [1, 6]: 2 × 10^4 | kcat /km (diffusion controlled) ([1]; approximate value): ~10^9 M^-1 s^-1 | Km ([1]; obtained from Table 3 data and eqs 5-9 of Bull et al. (1991)): 4 µM | kcat [2, 7]: 160 s⁻¹ | kcat /Km [2, 7]: 850000 M⁻¹ s⁻¹ | maximal value of Kcat /Km ([2]; FIG. 3, fit of pH profile pH 8.5 to 10.5, 5° C.): ~7×10^6 M^-1 s^-1 and 7±3×10^6 M^-1 s^-1 | maximal value of Kcat ([2]; FIG. 4, fit of pH profile, 5° C., in 1/s): 310±30 | kcat [2, 8]: 0.3 ms^-1 | kcat /km [2, 8]: 820000 M⁻¹ s⁻¹ | k1 [2, 9]: 2e+09 M⁻¹ s⁻¹ | k2 [2, 9]: 600 s⁻¹ | k3 [2, 9]: 2e+09 M⁻¹ s⁻¹ | k4 [2, 9]: 600 s⁻¹ | k-1 [2, 9]: 1.5e+06 s⁻¹ | k-4 [2, 9]: 1000 M⁻¹ s⁻¹ | k-5 ([2]; Table 2, KINSIM fit, dead-end complex, 5° C., pH 9.4): 200 s⁻¹ | k5 ([2]; Table 2, KINSIM fit, formation of dead-end complex, 5° C., pH 9.4): 20000 s⁻¹ | kcat /Km ([2]; observed at pH 9.4, 5° C.): 7×10^5 M^1 s^1 | maximal value of Kcat ([2]; pH dependence (FIG. 4)): ~300 s⁻¹ | kcat [3, 10]: 3.3 ms^.1 | kcat /Km [3, 10]: 870 μM^.1 S^.1 | ko /[E] (rate constant for the zero-order region of catalysis) ([3]; Table 5, pH 9.6, 20° C.): 88 S^.1 | kcat ([4]; Table 4): 1.8 ms^.1 | kcat /Km ([4]; Table 4): 170 μM^.1 S^.1 | ko /[E] (rate constant for the zero-order region of catalysis) ([4]; Table 5): 1,000 S^.1
